Where “and” joins values, the source holds several entries; their conditions need not be identical. Equal entries are not always repeated.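 Growth conditions: 96-well plates. Treatment: test compound, 48 hours, 5 concentrations. Analysis: linear interpolation between bracketing concentrations; unreached endpoints set to highest concentration. Here, GI50 denotes the concentration required for 50% inhibition of growth. TGI marks complete inhibition of growth.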 Where a SMILES comes first, the peptide text is derived from it. [ ]: non-standard residue; d: D form. The star is where a group is joined. ξ: configuration not given here. NMeN = CN[C@@H](CC(N)=O)C(=O)O; NMeV = CN[C@H](C(=O)O)C(C)C; ξNMeV = CNC(C(=O)O)C(C)C; Boc = CC(C)(C)OC(=O)*; ξNMeA = CNC(C)C(=O)O
Tests used:
Assay in all cases: inhibition of tumour cell growth, NCI panel, 48 h
A549 NSCLC = system: A549 NSCLC
ACHN renal = system: ACHN renal
HL-60(TB) leukemia = system: HL-60(TB) leukemia
IGROV1 ovarian = system: IGROV1 ovarian
NCI-H460 lung = system: NCI-H460 lung
OVCAR-4 ovarian = system: OVCAR-4 ovarian
RPMI-8226 leukemia = system: RPMI-8226 leukemia
SF-295 CNS = system: SF-295 CNS
TK-10 renal = system: TK-10 renal
UACC-257 melanoma = system: UACC-257 melanoma

SMILES | GI50 (A549 NSCLC) | TGI (A549 NSCLC) | GI50 (ACHN renal) | TGI (ACHN renal) | GI50 (HL-60(TB) leukemia) | TGI (HL-60(TB) leukemia) | GI50 (IGROV1 ovarian) | TGI (IGROV1 ovarian) | GI50 (NCI-H460 lung) | TGI (NCI-H460 lung) | GI50 (OVCAR-4 ovarian) | TGI (OVCAR-4 ovarian) | GI50 (RPMI-8226 leukemia) | TGI (RPMI-8226 leukemia) | GI50 (SF-295 CNS) | TGI (SF-295 CNS) | GI50 (TK-10 renal) | TGI (TK-10 renal) | GI50 (UACC-257 melanoma) | TGI (UACC-257 melanoma)
CC1(C)CC(n2cnc(-c3ccc(F)cc3)c2-c2ccnc(N)n2)CC(C)(C)N1 | 12.5 µM | > 25 µM | 10.3 µM | > 25 µM | > 25 µM | > 25 µM | 24.7 µM | > 25 µM | 11.9 µM | > 25 µM | 7.54 µM | > 25 µM | > 25 µM | > 25 µM | > 25 µM | > 25 µM | 16.1 µM | > 25 µM | > 25 µM | > 25 µM
CC1=C2C[C@H]3[C@@H](CC=C4C[C@@H](O)CC[C@@]43C)[C@@H]2CC[C@]12O[C@@H]1C[C@H](C)CN[C@H]1[C@H]2C | 16.8 µM and 17.5 µM | 50 µM and 39.4 µM | 10.4 µM and 18.7 µM | 22.3 µM and 41.4 µM | 11.5 µM and 15.7 µM | 50 µM and 55.1 µM | 40.5 µM and 17.5 µM | 50 µM and 38.9 µM | 21.8 µM and 19.9 µM | 50 µM and 44.4 µM | 32.1 µM and 18.8 µM | 50 µM and 37.3 µM | 8.84 µM and 18.1 µM | 31.8 µM and 46.2 µM | 40.8 µM and 19 µM | 50 µM and 40.2 µM | 7.17 µM and 14.2 µM | 25.9 µM and 34.1 µM | 20.3 µM and 17.3 µM | 50 µM and 33.1 µM
O=C1c2cc([N+](=O)[O-])ccc2-c2cccc(F)c21 |  | > 100 µM |  | > 100 µM |  | > 100 µM |  | > 100 µM |  | > 100 µM |  | > 100 µM |  | > 100 µM |  | > 100 µM |  | > 100 µM |  | > 100 µM
CCOC(=O)NC(=O)c1cn(CCCOC(=O)CCCCCCCCCCC(=O)OCCCn2cc(C(=O)NC(=O)OCC)c(=O)n(C)c2=O)c(=O)n(C)c1=O |  | > 100 µM |  | > 100 µM |  | > 100 µM |  | > 100 µM |  | > 100 µM |  | > 100 µM |  | > 100 µM |  | > 100 µM |  | > 100 µM |  | > 100 µM
COC(=O)C12CC3CC(C1)CC(C(=O)OC)(C3)C2 |  | > 100 µM |  | > 100 µM |  | > 100 µM |  | > 100 µM |  | > 100 µM |  | > 100 µM |  | > 100 µM |  | > 100 µM |  | > 100 µM |  | > 100 µM
O=C(CC12CC3CC(CC(C3)C1)C2)NCCOCCOCCOCCNC(=O)c1cc2c(o1)C(=O)c1ccccc1C2=O | 0.331 µM | 1.18 µM | 1.51 µM | 3.12 µM | 1.4 µM | 4.98 µM | 1.66 µM | 4.6 µM | 0.398 µM | 1.44 µM | 1.12 µM | 2.33 µM | 1.57 µM | 4.61 µM | 1.48 µM | 2.85 µM | 3.14 µM | 5.78 µM | 1.22 µM | 2.52 µM
COC(=O)C(=O)C(C(=O)C(=O)Nc1ccccc1C(C)=O)c1nc2ccc(C(=O)c3ccccc3)cc2[nH]c1=O (stereo not drawn) |  | > 100 µM |  | > 100 µM |  | > 100 µM |  | > 100 µM |  | > 100 µM |  | > 100 µM |  | > 100 µM |  | > 100 µM |  | > 100 µM |  | > 100 µM
CCCN1CN(C(C(=O)N[C@@H]2C(=O)N3C(C(=O)O)=C(C)CSC23)c2ccc(O)cc2)CSC1=S (stereo partly drawn) |  | > 100 µM |  | > 100 µM |  | > 100 µM |  | > 100 µM |  | > 100 µM |  | > 100 µM |  | > 100 µM |  | > 100 µM |  | > 100 µM |  | > 100 µM
Nc1nc(=S)[nH]c(C(=O)Nc2ccc(Cl)c(Cl)c2)c1-c1ccc(Cl)cc1 |  | > 100 µM |  | > 100 µM |  | > 100 µM |  | > 100 µM |  | > 100 µM |  | > 100 µM |  | > 100 µM |  | > 100 µM |  | > 100 µM |  | > 100 µM
C=C1C(=O)[C@@]23CC1C(O)[C@@H](OC(C)=O)[C@@H]2C1(C)C(OC(C)=O)C[C@@H](OC(C)=O)C(C)(C)[C@@H]1C[C@H]3OC(C)=O (stereo partly drawn) | > 10 µM and 13.9 µg/mL | > 10 µM and 30 µg/mL | 4.26 µg/mL | > 10 µM and 16.6 µg/mL | 1.89 µM and 0.529 µg/mL | 3.67 µM and 3 µg/mL | > 10 µM and 13.1 µg/mL | > 10 µM and 27.7 µg/mL | > 10 µM and 7.27 µg/mL | > 10 µM and 19.4 µg/mL | > 10 µM and 8.36 µg/mL | > 10 µM and 22.1 µg/mL | 1.55 µM and 0.543 µg/mL | 4.28 µM and 3.5 µg/mL | > 10 µM and 11.6 µg/mL | > 10 µM and 25.6 µg/mL | > 10 µM and 2.29 µg/mL | > 10 µM and 5.15 µg/mL | 3.55 µM and 2.25 µg/mL | > 10 µM and 5.06 µg/mL
COC(=O)C(C)N(C)C(=O)[C@H](CC(N)=O)N(C)C(=O)[C@@H]1CCCN1C(=O)[C@H](C(C)C)N(C)C(=O)C(C(C)C)N(C)C(=O)[C@@H](NC(=O)OC(C)(C)C)C(C)C (stereo partly drawn) (Boc-V[ξNMeV][NMeV]P[NMeN][ξNMeA]-OMe) | > 100 µM | 50 µM and > 100 µM | > 100 µM | > 100 µM | > 100 µM | 50 µM and > 100 µM | > 100 µM | > 100 µM | 17.9 µM | > 50 µM and 32.7 µM |  | > 100 µM |  | > 100 µM | > 100 µM | > 100 µM | > 100 µM | > 100 µM | > 100 µM | > 100 µM
CCN(CC)CCNC(=O)c1nn(C)c(=S)[nH]c1=S |  | > 100 µM |  | > 100 µM |  | > 100 µM |  | > 100 µM |  | > 100 µM |  | > 100 µM |  | > 100 µM |  | > 100 µM |  | > 100 µM |  | > 100 µM
O=P([O-])(O)OP(=O)([O-])O.[NH-][C@@H]1CCCC[C@H]1[NH-].[Pt+4] | 10 µM | > 100 µM | 4.78 µM and 5.63 µM | > 100 µM and 58.2 µM | > 70.2 µM | > 100 µM | 12.3 µM and 4.8 µM | > 100 µM | 4.4 µM and 2.33 µM | > 100 µM and 19.5 µM | > 75.1 µM and 11.2 µM | > 100 µM | 13.7 µM and 3.16 µM | > 100 µM | 26.2 µM and 14.5 µM | > 100 µM | 52.4 µM | > 100 µM | 70.6 µM and 7.93 µM | > 100 µM
C1CCN(C2OC3C(COC3N3CCCCC3)OC2OC2CCO[C@@H]2N2CCCCC2)CC1 (stereo partly drawn) |  | > 100 µM |  | > 100 µM |  | 67.8 µM |  | > 100 µM |  | > 100 µM |  | > 100 µM |  | > 100 µM |  | > 100 µM |  | > 100 µM |  | 88.1 µM
O=C(O)CC12C3C4C5C3C1C5C42 (stereo not drawn) |  | > 100 µM |  | > 100 µM |  | > 100 µM |  | > 100 µM |  | > 100 µM |  | > 100 µM |  | > 100 µM |  | > 100 µM |  | > 100 µM |  | > 100 µM
COC(=O)C12C3C4C5C3(C#N)C1C5(C(=O)OC)C42C(=O)N(C(C)C)C(C)C (stereo not drawn) |  | > 100 µM |  | > 100 µM |  | > 60 µM |  | > 100 µM |  | > 100 µM |  | > 100 µM |  | > 69.3 µM |  | > 100 µM |  | > 100 µM |  | > 100 µM

— PubChem BioAssay (NCI)
